Results as given in patent publication US20120225862A1, “HETEROARYL BENZAMIDES, COMPOSITIONS AND METHODS OF USE” (AUCKLAND UNIVSERVICES LIMITED, priority 2009, published 2012).

Columns and labels:
[1] = system: RCC4; assay: XTT IC50 / viability assay, RCC4 cells; type: cell-based, human; settings: Homo sapiens, RCC4, 96 h; XTT assay, four days
Experimental: (§1) RCC4 parental and RCC4 with VHL-reintroduced (RCC4/VHL), SN12C and SN12C-CSCG-VHL shRNA were maintained in DMEM supplemented with 10% FCS.
(§2) IC50 values for compounds were determined by XTT assay. For 2,3-bis[2-methoxy-4-nitro-5-sulfophenyl]-2H-tetrazolium-5-carboxanilide inner salt (XTT) assays, five thousand cells were plated in 96-well plates. The next day, vehicle or drug was added to each well and incubated for four days. Media was aspirated and phenol red-free medium with 0.3 mg/mL XTT and 2.65 ug/mL N-methyl dibenzopyrazine methyl sulfate was added. This was incubated at 37° C. for 1-2 hours and absorbance was read at 450 nm. IC50 values for each compound were calculated using linear interpolation.
(§3) For 2,3-bis[2-methoxy-4-nitro-5-sulfophenyl]-2H-tetrazolium-5-carboxanilide (XTT) assays, five thousand cells were plated in 96-well plates. The next day, vehicle (DMSO) or drug was added by serial dilution. Four days later, media were aspirated, XTT solution (0.3 mg/ml of XTT (Sigma), 2.65 mg/ml N-methyl dibenxopyrazine methyl sulfate (Simga) in phenol red-free media) was added, and the plates were incubated at 37° C. for 1-2 hours. Metabolism of XTT was quantified by measuring the absorbance at 450 nm. IC50s were calculated using linear interpolation. For clonogenic survival assays, three hundred cells were plated per 60 mm tissue culture dish. The cells were allowed to attach overnight and then treated with vehicle or drug for 14 days. Colonies were fixed and stained with crystal violet (0.1% crystal violet in 95% ethanol). All conditions were measured in triplicate and each experiment was done in duplicate or triplicate. To determine necrosis, cells were treated with drug for a given time point. Media and cells were collected, centrifugated, and resuspended in 0.4% trypan blue (Invitrogen). Live and dead cells were counted on a hematocytometer.

[2] = system: RCC4/VHL; assay: XTT IC50 assay, selectivity RCC4 versus RCC4 with VHL-reintroduced; type: cell-based, human; settings: selectivity ratio of XTT IC50 values, RCC4 vs RCC4/VHL
Experimental: as §1, §2, §3

Row | SMILES | IC50 [1] | Ratio (RCC4:RCC/VHL) [2]
1 | CN(C(=O)c1ccc(CNS(=O)(=O)c2ccccc2)cc1)c1cccnc1 [Example 90, N-Methyl-4-{[(phenylsulfonyl)amino]methyl}-N-(3-pyridinyl)benzamide] | 1 to 20 µM | a (“a” reflects a ratio of RCC4/RCC-VHL+ ranging from 1 to 10)
2 | O=C(Nc1cccnc1)c1ccc(CNS(=O)(=O)c2ccc(Cl)cc2)cc1 [Example 44, 4-((4-Chlorophenylsulfonamido)methyl)-N-(pyridin-3-yl)benzamide] | 1 to 20 µM | b (“b” reflects from 10 to 100)
3 | CN(C)C1Cc2ccc(S(=O)(=O)NCc3ccc(C(=O)Nc4cccnc4)cc3)cc2C1 (stereo not drawn) [Example 75, 4-((2-(Dimethylamino)-2,3-dihydro-1H-indene-5-sulfonamido)methyl)-N-(pyridin-3-yl)benzamide] | < 1 µM | c (“c” reflects a ratio of >100)
4 | CCN(Cc1ccc(C(=O)Nc2cccnc2)cc1)S(=O)(=O)c1ccc(C(C)(C)C)cc1 [Example 139, 4-{[[(4-tert-Butylphenyl)sulfonyl](ethyl)amino]methyl}-N-(3-pyridinyl)benzamide] | > 20 µM | a (“a” reflects a ratio of RCC4/RCC-VHL+ ranging from 1 to 10)
5 | O=C(Nc1cccnc1)c1ccc(CNS(=O)(=O)c2ccccc2F)cc1 [Example 11, 4-((2-Fluorophenylsulfonamido)methyl)-N-(pyridin-3-yl)benzamide] | 1 to 20 µM | a (“a” reflects a ratio of RCC4/RCC-VHL+ ranging from 1 to 10)
6 | COC1CCN(c2ccc(S(=O)(=O)NCc3ccc(C(=O)Nc4cccnc4)cc3)cc2)CC1 [Example 129, 4-[({[4-(4-Methoxy-1-piperidinyl)phenyl]sulfonyl}amino)methyl]-N-(3-pyridinyl)benzamide] | < 1 µM | c (“c” reflects a ratio of >100)
7 | CN(C)Cc1ccc(S(=O)(=O)NCc2ccc(C(=O)Nc3cccnc3)cc2)cc1 [Example 77, 4-[({4-[(Dimethylamino)methyl]phenyl}sulfonyl)amino]methyl-N-(3-pyridinyl)benzamide] | < 1 µM | b (“b” reflects from 10 to 100)
8 | O=C(Nc1cccnc1)c1cccc(CNS(=O)(=O)c2ccccc2)c1 [Example 92, 3-[(Phenylsulfonamido)methyl]-N-(3-pyridinyl)benzamide] | > 20 µM | 
9 | Cc1ccccc1S(=O)(=O)NCc1ccc(C(=O)Nc2cccnc2)cc1 [Example 10, 4-((2-Methylphenylsulfonamido)methyl)-N-(pyridin-3-yl)benzamide] | 1 to 20 µM | a (“a” reflects a ratio of RCC4/RCC-VHL+ ranging from 1 to 10)
10 | N#Cc1ccc(S(=O)(=O)NCc2ccc(C(=O)Nc3cccnc3)cc2)cc1 [Example 50, 4-((4-Cyanophenylsulfonamido)methyl)-N-(pyridin-3-yl)benzamide] | 1 to 20 µM | a (“a” reflects a ratio of RCC4/RCC-VHL+ ranging from 1 to 10)
11 | O=C(Nc1cccnc1)c1ccc(CNS(=O)(=O)c2ccc(N3CCCCC3)cc2)cc1 [Example 128, 4-[({[4-(1-Piperidinyl)phenyl]sulfonyl}amino)methyl]-N-(3-pyridinyl)benzamide] | < 1 µM | c (“c” reflects a ratio of >100)
12 | CC(C)(C)c1ccc(S(=O)(=O)NCc2ccc(C(=O)Nc3ccc(N4CCOCC4)nc3)cc2)cc1 [Example 117, 4-({[(4-tert-Butylphenyl)sulfonyl]amino}methyl)-N-[6-(4-morpholinyl)-3-pyridinyl]benzamide] | > 20 µM | a (“a” reflects a ratio of RCC4/RCC-VHL+ ranging from 1 to 10)
13 | Cn1ccc(-c2cccc(S(=O)(=O)NCc3ccc(C(=O)Nc4cccnc4)cc3)c2)n1 [Example 28, 4-[({[3-(1-Methyl-1H-pyrazol-3-yl)phenyl]sulfonyl}amino)methyl]-N-(3-pyridinyl)benzamide] | < 1 µM | c (“c” reflects a ratio of >100)
14 | CC(=O)Nc1ccc(S(=O)(=O)NCc2ccc(C(=O)Nc3cccnc3)cc2)cc1 [Example 42, 4-((4-Acetamidophenylsulfonamido)methyl)-N-(pyridin-3-yl)benzamide] | 1 to 20 µM | a (“a” reflects a ratio of RCC4/RCC-VHL+ ranging from 1 to 10)
15 | Cc1ccc(S(=O)(=O)NCc2ccc(C(=O)Nc3cccnc3)cc2)cc1C [Example 65, 4-((3,4-Dimethylphenylsulfonamido)methyl)-N-(pyridin-3-yl)benzamide] | < 1 µM | c (“c” reflects a ratio of >100)
16 | Cc1nc(-c2cccc(S(=O)(=O)NCc3ccc(C(=O)Nc4cccnc4)cc3)c2)no1 [Example 30, 4-[({[3-(5-Methyl-1,2,4-oxadiazol-3-yl)phenyl]sulfonyl}amino)methyl]-N-(3-pyridinyl)benzamide] | < 1 µM | c (“c” reflects a ratio of >100)

Row | SMILES | IC50 [1] | Ratio (RCC4:RCC/VHL) [2]
17 | Cc1nc(-c2ccc(S(=O)(=O)NCc3ccc(C(=O)Nc4cccnc4)cc3)cc2)cs1 [Example 59, 4-[({[4-(2-Methyl-1,3-thiazol-4-yl)phenyl]sulfonyl}amino)methyl]-N-(3-pyridinyl)benzamide] | 1 to 20 µM | b (“b” reflects from 10 to 100)
18 | O=C(Nc1cccnc1)c1ccc(CNS(=O)(=O)c2ccc(F)cc2)cc1 [Example 43, 4-((4-Fluorophenylsulfonamido)methyl)-N-(pyridin-3-yl)benzamide] | 1 to 20 µM | a (“a” reflects a ratio of RCC4/RCC-VHL+ ranging from 1 to 10)
19 | O=C(Nc1cccnc1)c1ccc(CNS(=O)(=O)c2ccc(Oc3ccccc3)cc2)cc1 [Example 35, 4-((4-Phenoxyphenylsulfonamido)methyl)-N-(pyridin-3-yl)benzamide] | 1 to 20 µM | b (“b” reflects from 10 to 100)
20 | CN(Cc1ccc(C(=O)Nc2cccnc2)cc1)S(=O)(=O)c1ccc(C(C)(C)C)cc1 [Example 138, 4-{[[(4-tert-Butylphenyl)sulfonyl](methyl)amino]methyl}-N-(3-pyridinyl)benzamide] | 1 to 20 µM | a (“a” reflects a ratio of RCC4/RCC-VHL+ ranging from 1 to 10)
21 | COc1ccc(-c2ccc(S(=O)(=O)NCc3ccc(C(=O)Nc4cccnc4)cc3)cc2)cc1 [Example 52, 4-({[(4′-Methoxy[1,1′-biphenyl]-4-yl)sulfonyl]amino}methyl)-N-(3-pyridinyl)benzamide] | 1 to 20 µM | b (“b” reflects from 10 to 100)
22 | Cc1ccc(S(=O)(=O)NCc2ccc(C(=O)Nc3cccnc3)cc2)c(C)c1 [Example 64, 4-((2,4-Dimethylphenylsulfonamido)methyl)-N-(pyridin-3-yl)benzamide] | 1 to 20 µM | a (“a” reflects a ratio of RCC4/RCC-VHL+ ranging from 1 to 10)
23 | COc1ccc(S(=O)(=O)NCc2ccc(C(=O)Nc3cccnc3)cc2)cc1 [Example 33, 4-((4-Methoxyphenylsulfonamido)methyl)-N-(pyridin-3-yl)benzamide] | 1 to 20 µM | b (“b” reflects from 10 to 100)
24 | O=C(Nc1ccncc1)c1ccc(CNS(=O)(=O)c2ccc(Br)cc2)cc1 [Example 96, 4-[(4-Bromophenylsulfonamido)methyl]-N-(4-pyridinyl)benzamide] | > 20 µM | 
25 | NCCOCCOCCOCCOCCOCCOCC#Cc1ccc(S(=O)(=O)NCc2ccc(C(=O)Nc3ccncc3)cc2)cc1 [Example 105, 4-[({[4-(21-Amino-4,7,10,13,16,19-hexaoxahenicos-1-yn-1-yl)phenyl]sulfonyl}amino)methyl]-N-(4-pyridinyl)benzamide] | > 20 µM | 
26 | CC(C)(C)c1ccc(C(=O)NCc2ccc(C(=O)Nc3cccnc3)cc2)cc1 [Example 86, 4-tert-Butyl-N-(4-(pyridin-3-ylcarbamoyl)benzyl)benzamide] | > 20 µM | 
27 | O=C(Nc1ccncc1)c1ccc(CNS(=O)(=O)c2ccc(F)cc2)cc1 [Example 97, 4-[(4-Fluorophenylsulfonamido)methyl]-N-(4-pyridinyl)benzamide] | > 20 µM | 
28 | CC(C)(C)c1ccc(COC(=O)NCc2ccc(C(=O)Nc3cccnc3)cc2)cc1 [Compound D, reference compound] | > 20 µM | 
29 | Cc1cc(C)cc(CNCc2ccc(C(=O)Nc3cccnc3)cc2)c1 [Compound C, reference compound] | > 20 µM | 
30 | O=C(Nc1ccncc1)c1ccc(CNS(=O)(=O)c2ccccc2)cc1 [Example 3, 4-(Phenylsulfonamidomethyl)-N-(pyridin-4-yl)benzamide] | > 20 µM | 
31 | CC(C)(C)c1ccc(S(=O)(=O)NCc2cccc(C(=O)Nc3cccnc3)c2)cc1 [Example 91, 3-[(4-tert-Butylphenylsulfonamido)methyl]-N-(3-pyridinyl)benzamide] | > 20 µM | 
32 | O=C(Nc1ccccn1)c1ccc(CNS(=O)(=O)c2ccccc2)cc1 [Example 1, 4-(Phenylsulfonamidomethyl)-N-(pyridin-2-yl)benzamide] | > 20 µM | 
